Measured values taken from patent US8754242B2, “Herbicides” (Syngenta Crop Protection LLC, priority 2007, dated 2014).

Experiments:
Assay type in all cases: in vivo
Lolium perenne (LOLPE) [1] = test: Test Example 1 pre-emergence herbicidal activity; conditions: Lolium perenne, 480 h, rate 250 g/ha, evaluated 20 days later, read-out: Pre-emergence activity LOLPE (100=total damage to plant; 0=no damage to plant)
Method in brief: (§1)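 Pots sown in standard soil were sprayed 1 day (pre-emergence) or 10 days (post-emergence) after sowing with an aqueous spray from an acetone/Emulsogen EL/N-methylpyrrolidone-based formulation. Visual damage was scored 20 days (pre) or 15 days (post) later in the greenhouse, 0 = none to 100 = total.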

Avena fatua (AVEFA) [2] = test: Test Example 1 pre-emergence herbicidal activity; conditions: Avena fatua, 480 h, rate 250 g/ha, evaluated 20 days later, read-out: Pre-emergence activity AVEFA (100=total damage to plant; 0=no damage to plant)
Method in brief: as §1

Setaria faberi (SETFA) [3] = test: Test Example 1 pre-emergence herbicidal activity; conditions: Setaria faberi, 480 h, rate 250 g/ha, evaluated 20 days later, read-out: Pre-emergence activity SETFA (100=total damage to plant; 0=no damage to plant)
Method in brief: as §1

[4] = system: Digitaria sanguinalis (DIGSA); test: Test Example 1 pre-emergence herbicidal activity; conditions: Digitaria sanguinalis, 480 h, rate 250 g/ha, evaluated 20 days later, read-out: Pre-emergence activity DIGSA (100=total damage to plant; 0=no damage to plant)
Method in brief: as §1

[5] = system: Echinochloa crus-galli (ECHCG); test: Test Example 1 pre-emergence herbicidal activity; conditions: Echinochloa crus-galli, 480 h, rate 250 g/ha, evaluated 20 days later, read-out: Pre-emergence activity ECHCG (100=total damage to plant; 0=no damage to plant)
Method in brief: as §1

[6] = system: Alopecurus myosuroides (ALOMY); test: Test Example 1 pre-emergence herbicidal activity; conditions: Alopecurus myosuroides, 480 h, rate 250 g/ha, evaluated 20 days later, read-out: Pre-emergence activity ALOMY (100=total damage to plant; 0=no damage to plant)
Method in brief: as §1

Lolium perenne (LOLPE) [7] = test: Test Example 1 post-emergence herbicidal activity; conditions: 360 h, rate 125 g/ha, evaluated 15 days later, read-out: Post-emergence activity LOLPE (100=total damage to plant; 0=no damage to plant)
Method in brief: as §1

Avena fatua (AVEFA) [8] = test: Test Example 1 post-emergence herbicidal activity; conditions: 360 h, rate 125 g/ha, evaluated 15 days later, read-out: Post-emergence activity AVEFA (100=total damage to plant; 0=no damage to plant)
Method in brief: as §1

Setaria faberi (SETFA) [9] = test: Test Example 1 post-emergence herbicidal activity; conditions: 360 h, rate 125 g/ha, evaluated 15 days later, read-out: Post-emergence activity SETFA (100=total damage to plant; 0=no damage to plant)
Method in brief: as §1

[10] = system: Digitaria sanguinalis (DIGSA); test: Test Example 1 post-emergence herbicidal activity; conditions: 360 h, rate 125 g/ha, evaluated 15 days later, read-out: Post-emergence activity DIGSA (100=total damage to plant; 0=no damage to plant)
Method in brief: as §1

[11] = system: Echinochloa crus-galli (ECHCG); test: Test Example 1 post-emergence herbicidal activity; conditions: 360 h, rate 125 g/ha, evaluated 15 days later, read-out: Post-emergence activity ECHCG (100=total damage to plant; 0=no damage to plant)
Method in brief: as §1

[12] = system: Alopecurus myosuroides (ALOMY); test: Test Example 1 post-emergence herbicidal activity; conditions: 360 h, rate 125 g/ha, evaluated 15 days later, read-out: Post-emergence activity ALOMY (100=total damage to plant; 0=no damage to plant)
Method in brief: as §1

Compound | pest or weed control at 250 g/ha (Lolium perenne (LOLPE) [1]) | pest or weed control at 250 g/ha (Avena fatua (AVEFA) [2]) | pest or weed control at 250 g/ha (Setaria faberi (SETFA) [3]) | pest or weed control at 250 g/ha [4] | pest or weed control at 250 g/ha [5] | pest or weed control at 250 g/ha [6] | pest or weed control at 125 g/ha (Lolium perenne (LOLPE) [7]) | pest or weed control at 125 g/ha (Avena fatua (AVEFA) [8]) | pest or weed control at 125 g/ha (Setaria faberi (SETFA) [9]) | pest or weed control at 125 g/ha [10] | pest or weed control at 125 g/ha [11] | pest or weed control at 125 g/ha [12]
CCc1cc(C)cc(CC)c1C1=C(O)[C@@H]2[C@@H]3O[C@@H](C[C@H]3c3ccc(F)cc3)[C@@H]2C1=O [Example T185] | 100% | 80% | 80% | 80% | 80% | 80% | 80% | 80% | 100% | 100% | 100% | 90%
Cc1cc(C)c(C2=C(O)[C@@H]3[C@@H]4O[C@@H](C[C@H]4c4ncc(C(F)(F)F)cc4C(F)(F)F)[C@@H]3C2=O)c(C)c1 [Example T203] | 60% | 20% | 70% | 70% | 90% | 20% | 10% | 10% | 0% | 50% | 50% | 20%
CCCCCCC(=O)OC1=C(c2c(CC)cc(C)cc2CC)C(=O)[C@@H]2[C@H]1[C@H]1CC[C@@H]2O1 (racemic) [Example P20] | 100% | 80% | 100% | 100% | 100% | 100% | 100% | 100% | 90% | 80% | 100% | 100%
CC[C@@H]1C[C@@H]2O[C@H]1[C@H]1C(O)=C(c3c(C)cc(C)cc3C)C(=O)[C@H]12 [Example T106] | 100% | 90% | 100% | 100% | 100% | 90% | 80% | 80% | 90% | 80% | 100% | 90%
COC[C@H]1C[C@@H]2O[C@H]1[C@H]1C(O)=C(c3c(C)cc(C)cc3C)C(=O)[C@H]12 [Example T47] | 100% | 80% | 80% | 70% | 100% | 100% | 90% | 90% | 70% | 60% | 100% | 100%
Cc1cc(C)c(C2=C(O)[C@H]3[C@@H](C2=O)[C@]2(C)CC(C)[C@@]3(C)O2)c(C)c1 (stereo partly drawn) [Example T125] | 100% | 70% | 100% | 100% | 100% | 70% | 70% | 70% | 80% | 80% | 90% | 80%
CCc1cc(C)cc(CC)c1C1=C(OC(=O)C(C)(C)C)[C@H]2[C@@H](C1=O)[C@@H]1CC[C@H]2O1 (racemic) [Example P14] | 100% | 100% | 100% | 100% | 100% | 100% | 90% | 90% | 100% | 100% | 100% | 90%
